According to patent publication US11564990B2, “Multi-drug-loading-site, high drug-loading capacity ligand-drug conjugate” (JenKem Technology Co., Ltd. (Beijing), priority 2017, dated 2023):

Assays:
[1] = tested on: colorectal cancer model (HCT-116); assay: Efficacy test in colorectal cancer model in which HER2 was not expressed; type: in vivo, nude mice; conditions: HCT-116 model
Description: Experimental method: Evaluation of the efficacy of the sample was performed using a colorectal cancer model in which HER2 was not expressed. The cell line at logarithmic growth phase was inoculated subcutaneously into the right side of the immunodeficient mice, and the cell inoculation amount was 5×10^6 cells/mouse. After the transplanted tumor was formed, allow it grow in the mice for 2 passage before use. The tumor tissue with strong growth period was cut into tumor pieces with a diameter of about 2 mm, and inoculated subcutaneously into the right torso of nude mice under sterile conditions. The formed tumor tissue is measured by a vernier caliper, and the long and short diameters are represented by a and b, respectively, and the tumor volume (TV) is calculated as: TV=½×a×b^2. Animals were randomized after tumor growth to 100-150 mm^3. Both models were divided into vehicle group, control group (recombinant anti-HER2 humanized monoclonal antibody Ab, 30 mg/kg) and test group I (administered with APEGA-8, 9, 10, respectively (prepared in Example 6-8), the dose was 30 mg/kg in terms of Ab, and the test group II (PEG-Irinotecan (prepared in Example 5), the dose was 30 mg/kg). Both the test article and the control drug were administered once a week vial the tail vein for a total of three administrations. The diameter of the transplanted tumor was measured twice a week during the entire experiment, and the body weight of the mice was weighed. After the end of the administration, continue to observe the animals for a week, and then they were sacrificed.

[2] = Antibody pharmacokinetic assay in rats (total antibody in plasma by HER2 ELISA); conditions: SD rats, intravenous 30 mg/kg, compared with control Ab
[3] = Determination of drug antibody coupling ratio (DAR) by UV/Vis method; type: physicochemical; conditions: two-step coupling products, UV-Vis; moles of drug divided by moles of antibody
Excerpt: In formula (1), the sum of the absorbances of the drug and the antibody at 280 nm constitutes the total absorbance (A280): A280=(εdrug^280Cdrug+εmAb^280CmAb)l (1)
wherein εdrug^280 is the extinction coefficient of the drug at 280 nm; Cdrug is the drug concentration (mg/mL); […] the extinction coefficient of the antibody at 280 nm; CmAb is the concentration of the antibody.
Equation (2) is the parallel equation for the total absorbance of the drug at the maximum absorption λ(D): Aλ(D)=(εdrug^λ(D)Cdrug+εmAb^λ(D)CmAb)l (2)
wherein εdrug^λ(D) is the extinction coefficient of the drug at λ(D)nm; Cdrug is the drug concentration (mg/mL); εmAb^λ(D) is the extinction coefficient of the antibody at λ(D)nm; CmAb is the concentration of the antibody (mg/mL).
The concentration of antibody and drug can be calculated separately by two equations (1) and (2). CmAb=(A280εdrug^λ(D)−Aλ(D)εdrug^280)/[(εmAb^280εdrug^λ(D)−εmAb^λ(D)εdrug^280)l] (3) Cdrug=(A280εmAb^λ(D)−Aλ(D)εmAb^280)/[(εdrug^280εmAb^λ(D)−εdrug^λ(D)εmAb^280)l] (4)
The average drug antibody coupling ratio (DAR) calculated by dividing
[formula] is expressed as the number of moles of drug divided by the number of moles of antibody: […]

In the case of `CCc1c2c(nc3ccc(OC(=O)N4CCC(N5CCCCC5)CC4)cc13)-c1cc3c(c(=O)n1C2)COC(=O)[C@]3(C)CC` [APEGA-8], the “antitumor activities in relation to drug loading” value ([1]; 30 mg/kg in terms of Ab, QW×3) is reported as “increased with the drug loading”, the “efficacy compared with group II (PEG-Irinotecan 30 mg/kg)” value ([1]; irinotecan dose 2.6, 4.2, 11.2 mg/kg respectively) is reported as “still better than group II” and the “Tumor inhibition rate (%)” value ([1]; third week of administration, 30 mg/kg QW×3 via tail vein) is reported as 40.1%. The “elimination rate in rat plasma (total antibody)” value [2] was “increased to a certain extent compared with the control Ab, but the decline trend was not significant” and the “DAR (average drug antibody coupling ratio)” value [3] was 22.2.
